How the values were obtained:
C57BL6 mice [1] = test: DSS induced (acute) colitis; format: in vivo; conditions: 200 ug IP daily, 3.5% DSS up to five days
Procedure: FIGS. 17A-17D. BC-1215 reduces DSS induced colonic inflammation. FIGS. 17A-FIG. 17C. C57BL6 mice were fed with water containing 3.5% dextran sulfate sodium (DSS) for up to five days. Mice were treated with either vehicle or 100 ug of BC-1215 daily (via IP injection). Mice were then euthanized; the length of the colon was measured and graphed in (FIG. 17A). Colonic tissues were also analyzed for IL1β (FIG. 17B) and TNFα (FIG. 17C) by ELISA. (n=4 mice/group, *p<0.05 versus DSS) FIG. 17D, H&E staining was performed on colonic samples. (n=4 mice/group, *p<0.05 versus DSS)
FIGS. 24A-24E. […] A-D. C57BL6 mice were fed with water ad lib containing 3.5% dextran sulfate sodium (DSS) for up to five days. Mice were treated with either vehicle (control [CON]) or BC-1261 (150 μg) daily (via an i.p. injection), or BC-1261 were administered into drinking water at 30 μg/ml (po). Mice were then euthanized and the length of the colon was measured and graphed in (A-B). Colonic tissues were also analyzed for TNFα (C) and IL6(D). E. H&E staining was performed on colonic sections. The data represent n=4 mice/group, *P<0.05 versus DSS and **P<0.05 versus CON.
BC-1215 ameliorates DSS induced colitis. BC-1215 was also tested in a mouse colitis model to confirm its anti-inflammatory activity. Briefly, C57BL6 mice were fed with water containing 3.5% dextran sulfate sodium (DSS) for up to five days. Mice were treated with either vehicle or 200 ug of BC-1215 daily (via IP injection). Mice were then euthanized; the length of colons was measured. […] Colonic tissue cytokine levels were analyzed. […] Thus, the FBXO3 inhibitor BC-1215 suppresses inflammation in chemical induced colitis model in mice.

C57BL6 mice [2] = format: in vivo; conditions: mouse, in vivo
human PBMC cells = test: LPS-induced IL1β and TNFα cytokine release from PBMC cells (ELISA); format: cell-based; conditions: LPS-exposed human PBMC
Procedure: FIGS. 20A-20J is a table depicting benzathine compounds, and assay results. PBMC cells (0.6 ml at 1.5*10^6/ml) were treated with 2 ug/ml LPS for 16 hrs along with each compound at different concentrations. IL1β and TNFα cytokine release were monitored by ELISA to calculate the IC50. U937 monocyte (0.6 ml at 1.5*10^6/ml) were treated with each compound at different concentrations for 16 h. Cells were then stained with Trypan blue to differentiate dead cells, and calculate the LD50. Therapeutic index (TI)=LD50/IC50. Compounds marked in red are high value targets (low IC50, high LD50) and require further testing in vivo.
Briefly, compounds were added to human PBMC cells at different concentrations that were exposed to […] and cytokine secretion was monitored by ELISA to determine the IC50. Compounds were also added to U937 monocytes at different concentrations, and cells were stained with trypan blue to determine the LD50. […] Several functional studies were undertaken to assess anti-inflammatory effects focusing on BC-1215.

C57BL6 mice [3] = test: LPS induced (endotoxin) septic shock model; format: in vivo; conditions: IP, 10 min before 100 ug LPS IP; blood at 90 min
Procedure: FIG. 11. BC-1215 inhibits cytokine release from in an endotoxin septic shock model. BC-1215 was solubilized in water using acetic acid in a 1:2 molar ratio; the stock solution of BC-1215 was 5 mg/ml. C57BL6 mice were deeply anesthetized with ketamine (80-100 mg/kg intraperitoneally (i.p.) and xylazine (10 mg/kg i.p.). 500 ug, 100 ug, 20 ug, 4 ug and 0.8 ug of BC-1215 was administered to mice through an intraperitoneal (IP) injection. 10 min later, mice were given 100 ug of LPS (E. coli) through an IP injection. 90 min later, mice were euthanized; blood was collected and tested for IL1-β, IL-6 and TNFα assays. (n=3/mice group at each dose)
Compound BC-1215 was first solubilized in water using acetic acid in a 1:2 molar ratio; the stock solution of BC-1215 was 5 mg/ml. 500 ug, 100 ug, 20 ug, 4 ug and 0.8 ug of BC-1215 was administered to mice though an intraperitoneal (IP) injection. 10 min later, mice were given 100 ug of LPS (E. coli) through an IP injection. 90 min later, mice were euthanized; blood was collected and tested for IL1-β, IL-6 and TNFα cytokine assays.

Staphylococcus aureus = test: Kirby-Bauer antibiotic sensitivity test on Mueller-Hinton agar; format: cell-based; conditions: 6 mm filter papers, 37 degrees, 24 h
Procedure: FIG. 19. Kirby-Bauer antibiotic testing. BC-1215 was tested in antibiotic sensitivity tests using Mueller-Hinton agar. Briefly, 6 mm filter papers containing different amounts of BC-1215 or gentamicin (positive control) were added on the Mueller-Hinton agar pre-exposed to Staphylococcus aureus. The plates were incubated at 37 degrees for 24 h. Zone sizes were measured and marked by a red circle indicating positive results.
Briefly, 6 mm filter papers containing different amounts of BC-1215 or gentamicin antibiotic (positive control) were added on the Mueller-Hinton agar pre-exposed to Staphylococcus aureus. The plates were incubated at 37 degrees for 24 h. Zone sizes were measured and marked by a red circle indicating positive results.

PBMC cells = test: LPS-treated PBMC human cytokine array; format: cell-based; conditions: 10 ug/ml compound, 2 ug/ml LPS, 16 hrs
Procedure: FIG. 9. BC-1215 inhibits a broad spectrum of Th1 panel cytokines. PBMC cells (0.6 ml at 1.5*10^6/ml) were treated with 2 ug/ml LPS for 16 his with BC-1215 at 10 ug/ml. Cytokine release was monitored by the human cytokine array (R&D systems).
PBMC cells were treated with 2 ug/ml LPS for 16 hrs along with BC-1215 at 10 ug/ml. Cytokine release was monitored by a human cytokine array (R&D systems). […] These cytokines are tightly linked to the pathogenesis of many pro-inflammatory diseases, some of which have led to the use of blocking cytokine antibodies to reduce disease severity. For example: GM-CSF drives inflammation in rheumatoid arthritis (RA), and currently, GM-CSF blocking antibodies (MOR103) have been tested in Phase 1b/2a trial in patients suffering from RA.

Procedure for Hela cells: Hela cells were treated with BC-1215 at different concentrations for 24 h before cell cycle analysis (BD bioscience).

c1ccc(-c2ccc(CNCCNCc3ccc(-c4ccccn4)cc3)cc2)nc1 [BC-1215]
IL1β levels in colon tissues (C57BL6 mice [1]): remarkable reduction | TNFα levels in colon tissues (C57BL6 mice [1]): remarkable reduction | colon length (C57BL6 mice [1]): no significant decrease in colon length compared to control | colonic tissue injury (H&E) (C57BL6 mice [1]): significantly reduced | cell infiltrates (C57BL6 mice [2]): remarkably decreased | lavage cell counts (C57BL6 mice [2]): remarkably decreased | lavage protein concentration (C57BL6 mice [2]): remarkably decreased | lung compliance (C57BL6 mice [2]): increased compliance | lung edema (C57BL6 mice [2]): remarkably decreased | lung elastance (C57BL6 mice [2]): reduced elastance | survival (C57BL6 mice [2]): significantly increased their survival | IC50 (cytokine secretion) (human PBMC cells): high | cell cycle progression (Hela cells): did not significantly alter cell cycle progression | IC50 IL-1β (C57BL6 mice [3]): 1 mg/kg | IC50 IL-6 (C57BL6 mice [3]): 2.5 mg/kg | IC50 TNFα (C57BL6 mice [3]): 1.2 mg/kg | S. aureus proliferation (zone of inhibition) (Staphylococcus aureus): inhibits S. aureus proliferation | TH1 panel cytokine release (PBMC cells): significantly suppress the majority of the TH1 panel cytokines

From patent US11857550B2, “Benzathine analogs” (University of Pittsburgh—Of the Commonwealth System of …, priority 2012, dated 2024)
